Measured values as given in ChEMBL document CHEMBL1201862, “PubChem BioAssay data set” (2004).
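Where inhibition never reached the appropriate level, the endpoint shown equals the highest concentration tested. Otherwise, values were interpolated linearly from a five-concentration, 48-hour dose response in 96-well plates. Here, GI50 denotes the concentration required for 50% inhibition of growth.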 Activity calls are given as the source filed them. Rule as the data show it: active = GI50 up to about 1.1 µM and inactive = higher.

Columns and labels:
Assay in all cases: NCI-60 cell line screen, 48 h
SW-620 = test system: SW-620
HCT-15 = test system: HCT-15
OVCAR-4 = test system: OVCAR-4
HOP-62 = test system: HOP-62
SNB-78 = test system: SNB-78
DMS-273 = test system: DMS-273
RPMI-8226 = test system: RPMI-8226
HL-60 = test system: HL-60
LOX IMVI = test system: LOX IMVI
ACHN = test system: ACHN
SF-295 = test system: SF-295
HOP-92 = test system: HOP-92
U-251 = test system: U-251
SK-MEL-28 = test system: SK-MEL-28
XF498 = test system: XF498
SK-MEL-5 = test system: SK-MEL-5
HCC 2998 = test system: HCC 2998
DMS-114 = test system: DMS-114
KM12 = test system: KM12
DLD-1 = test system: DLD-1
MOLT-4 = test system: MOLT-4
OVCAR-3 = test system: OVCAR-3
786-0 = test system: 786-0
NCI-H23 = test system: NCI-H23
SNB-19 = test system: SNB-19
TK-10 = test system: TK-10
SN12C = test system: SN12C
NCI-H522 = test system: NCI-H522
CCRF-CEM = test system: CCRF-CEM
M19-MEL = test system: M19-MEL
HCT-116 = test system: HCT-116
SNB-75 = test system: SNB-75
NCI-H460 = test system: NCI-H460
RXF 393 = test system: RXF 393
EKVX = test system: EKVX
UACC-62 = test system: UACC-62
SK-MEL-2 = test system: SK-MEL-2
CAKI-1 = test system: CAKI-1
K562 = test system: K562
UO-31 = test system: UO-31
IGROV-1 = test system: IGROV-1
A498 = test system: A498
Malme-3M = test system: Malme-3M
COLO 205 = test system: COLO 205
M14 = test system: M14
SK-OV-3 = test system: SK-OV-3
A549 = test system: A549
SF-268 = test system: SF-268
OVCAR-8 = test system: OVCAR-8
SF-539 = test system: SF-539
OVCAR-5 = test system: OVCAR-5
UACC-257 = test system: UACC-257
LXFL 529 = test system: LXFL 529

Cc1ccc(Nc2ccc(Nc3ccc(C)cc3)c3c2C(=O)c2c(O)ccc(O)c2C3=O)cc1
GI50 (SW-620): > 100 µM (inactive) | GI50 (HCT-15): > 100 µM | GI50 (OVCAR-4): > 100 µM (inactive) | GI50 (HOP-62): > 100 µM (inactive) | GI50 (SNB-78): 68.1 µM (inactive) | GI50 (DMS-273): > 100 µM (inactive) | GI50 (RPMI-8226): > 100 µM (inactive) | GI50 (HL-60): 80.9 µM (inactive) | GI50 (LOX IMVI): > 100 µM (inactive) | GI50 (ACHN): > 100 µM (inactive) | GI50 (SF-295): > 100 µM (inactive) | GI50 (HOP-92): > 100 µM (inactive) | GI50 (U-251): > 100 µM (inactive) | GI50 (SK-MEL-28): 91.4 µM (inactive) | GI50 (XF498): > 100 µM (inactive) | GI50 (SK-MEL-5): > 100 µM (inactive) | GI50 (HCC 2998): > 100 µM (inactive) | GI50 (DMS-114): > 100 µM (inactive) | GI50 (KM12): > 100 µM (inactive) | GI50 (DLD-1): > 100 µM (inactive) | GI50 (MOLT-4): > 100 µM (inactive) | GI50 (OVCAR-3): 70.5 µM (inactive) | GI50 (786-0): > 100 µM (inactive) | GI50 (NCI-H23): > 100 µM (inactive) | GI50 (SNB-19): > 100 µM (inactive) | GI50 (TK-10): > 100 µM (inactive) | GI50 (SN12C): > 100 µM (inactive) | GI50 (NCI-H522): 47.8 µM (inactive) | GI50 (CCRF-CEM): 67.6 µM (inactive) | GI50 (M19-MEL): > 100 µM (inactive) | GI50 (HCT-116): > 100 µM (inactive) | GI50 (SNB-75): 68.4 µM (inactive) | GI50 (NCI-H460): > 100 µM (inactive) | GI50 (RXF 393): > 100 µM (inactive) | GI50 (EKVX): > 100 µM (inactive) | GI50 (UACC-62): > 100 µM (inactive) | GI50 (SK-MEL-2): > 100 µM (inactive) | GI50 (CAKI-1): > 100 µM (inactive) | GI50 (K562): > 100 µM (inactive) | GI50 (UO-31): > 100 µM (inactive) | GI50 (IGROV-1): > 100 µM (inactive) | GI50 (A498): > 100 µM (inactive) | GI50 (Malme-3M): > 100 µM (inactive) | GI50 (COLO 205): > 100 µM (inactive) | GI50 (M14): > 100 µM (inactive) | GI50 (SK-OV-3): > 100 µM (inactive) | GI50 (A549): > 100 µM (inactive) | GI50 (SF-268): > 100 µM (inactive) | GI50 (OVCAR-8): > 100 µM (inactive) | GI50 (SF-539): 66.2 µM (inactive) | GI50 (OVCAR-5): > 100 µM (inactive) | GI50 (UACC-257): > 100 µM (inactive) | GI50 (LXFL 529): 75.2 µM (inactive)
